Laboratory results from ChEMBL document CHEMBL1131542, “A potent dipeptide inhibitor of dipeptidyl peptidase IV” (Bioorg Med Chem Lett, 1998).
Square brackets hold non-standard residues; d marks the D form. Peptide text beside a SMILES is read from it. Tic = O=C(O)[C@@H]1Cc2ccccc2CN1

Assays:
[1] = molecular target: T1, Dipeptidyl peptidase 4 (Homo sapiens, UniProt P27487); test: Percent inhibition of Dipeptidyl peptidase IV (DPP IV) at a concentration of 10 uM
[2] = molecular target: T1, Dipeptidyl peptidase 4; test: Percent inhibition against Dipeptidyl peptidase IV (DPP IV) at a concentration of 1 uM

T1 sequence (P27487 whole entry, looked up): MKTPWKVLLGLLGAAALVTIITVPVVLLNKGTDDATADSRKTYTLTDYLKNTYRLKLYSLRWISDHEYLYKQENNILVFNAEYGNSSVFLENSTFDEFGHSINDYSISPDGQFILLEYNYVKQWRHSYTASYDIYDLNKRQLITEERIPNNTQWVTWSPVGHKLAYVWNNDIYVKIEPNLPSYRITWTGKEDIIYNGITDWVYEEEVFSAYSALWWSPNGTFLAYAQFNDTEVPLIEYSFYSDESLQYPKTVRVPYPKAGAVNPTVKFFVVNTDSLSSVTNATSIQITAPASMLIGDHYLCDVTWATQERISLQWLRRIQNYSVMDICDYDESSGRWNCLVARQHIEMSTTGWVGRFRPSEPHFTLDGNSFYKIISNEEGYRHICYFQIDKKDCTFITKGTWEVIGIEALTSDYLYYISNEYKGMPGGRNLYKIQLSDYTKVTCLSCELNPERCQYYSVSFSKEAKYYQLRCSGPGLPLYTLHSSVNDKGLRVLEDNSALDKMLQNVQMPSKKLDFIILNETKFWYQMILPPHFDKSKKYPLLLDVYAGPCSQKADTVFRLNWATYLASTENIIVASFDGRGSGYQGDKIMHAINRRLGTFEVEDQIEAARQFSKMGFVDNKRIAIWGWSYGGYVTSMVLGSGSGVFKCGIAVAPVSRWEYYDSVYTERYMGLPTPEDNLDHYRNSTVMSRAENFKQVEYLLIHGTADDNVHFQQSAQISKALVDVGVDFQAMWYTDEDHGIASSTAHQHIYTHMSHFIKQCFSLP

inhibition [1] | inhibition [2] | SMILES
32% |  | CC[C@@H](C)[C@H](NC(=O)[C@@H]1Cc2ccccc2CN1C(=O)[C@@H](N)Cc1c[nH]c2ccccc12)C(=O)O
 | 2% | CC[C@H](C)[C@H](NC(=O)[C@H](Cc1c[nH]cn1)NC(=O)CNC(=O)[C@H](CCC(=O)O)NC(=O)[C@H](CCC(N)=O)NC(=O)[C@H](CC(=O)O)NC(=O)[C@H](CC(N)=O)NC(=O)[C@H](CCCN=C(N)N)NC(=O)[C@H](C)NC(=O)[C@@H]1Cc2ccccc2CN1C(=O)[C@H]1CCCN1)C(=O)N[C@@H](CC(C)C)C(=O)N[C@@H](CCCCN)C(=O)N[C@@H](CCSC)C(=O)N[C@@H](Cc1ccccc1)C(=O)N1CCC[C@H]1C(=O)N[C@@H](CO)C(=O)N[C@H](C(=O)N[C@@H](Cc1c[nH]c2ccccc12)C(=O)N[C@@H](Cc1ccc(O)cc1)C(=O)N[C@H](C(=O)O)C(C)C)[C@@H](C)O
37% |  | C[C@H](O)[C@H](NC(=O)[C@@H]1Cc2ccccc2CN1C(=O)[C@@H](N)Cc1c[nH]c2ccccc12)C(=O)O
 | 1% | CC[C@H](C)[C@H](NC(=O)[C@H](Cc1c[nH]cn1)NC(=O)CNC(=O)[C@H](CCC(=O)O)NC(=O)[C@H](CCC(N)=O)NC(=O)[C@H](CC(=O)O)NC(=O)[C@H](CC(N)=O)NC(=O)[C@H](CCCN=C(N)N)NC(=O)[C@H](C)NC(=O)[C@@H]1Cc2ccccc2CN1C(=O)[C@H](C)N)C(=O)N[C@@H](CC(C)C)C(=O)N[C@@H](CCCCN)C(=O)N[C@@H](CCSC)C(=O)N[C@@H](Cc1ccccc1)C(=O)N1CCC[C@H]1C(=O)N[C@@H](CO)C(=O)N[C@H](C(=O)N[C@@H](Cc1c[nH]c2ccccc12)C(=O)N[C@@H](Cc1ccc(O)cc1)C(=O)N[C@H](C(=O)O)C(C)C)[C@@H](C)O (H-A[Tic]ARNDQEGHILKMFPSTWYV-OH)
 | 9% | CC[C@H](C)[C@H](NC(=O)[C@H](Cc1c[nH]cn1)NC(=O)CNC(=O)[C@H](CCC(=O)O)NC(=O)[C@H](CCC(N)=O)NC(=O)[C@H](CC(=O)O)NC(=O)[C@H](CC(N)=O)NC(=O)[C@H](CCCN=C(N)N)NC(=O)[C@H](C)NC(=O)[C@@H]1Cc2ccccc2CN1C(=O)[C@@H](N)CS)C(=O)N[C@@H](CC(C)C)C(=O)N[C@@H](CCCCN)C(=O)N[C@@H](CCSC)C(=O)N[C@@H](Cc1ccccc1)C(=O)N1CCC[C@H]1C(=O)N[C@@H](CO)C(=O)N[C@H](C(=O)N[C@@H](Cc1c[nH]c2ccccc12)C(=O)N[C@@H](Cc1ccc(O)cc1)C(=O)N[C@H](C(=O)O)C(C)C)[C@@H](C)O (H-C[Tic]ARNDQEGHILKMFPSTWYV-OH)
 | 8% | CC[C@H](C)[C@H](NC(=O)[C@H](Cc1c[nH]cn1)NC(=O)CNC(=O)[C@H](CCC(=O)O)NC(=O)[C@H](CCC(N)=O)NC(=O)[C@H](CC(=O)O)NC(=O)[C@H](CC(N)=O)NC(=O)[C@H](CCCN=C(N)N)NC(=O)[C@H](C)NC(=O)[C@@H]1Cc2ccccc2CN1C(=O)[C@@H](N)CC(=O)O)C(=O)N[C@@H](CC(C)C)C(=O)N[C@@H](CCCCN)C(=O)N[C@@H](CCSC)C(=O)N[C@@H](Cc1ccccc1)C(=O)N1CCC[C@H]1C(=O)N[C@@H](CO)C(=O)N[C@H](C(=O)N[C@@H](Cc1c[nH]c2ccccc12)C(=O)N[C@@H](Cc1ccc(O)cc1)C(=O)N[C@H](C(=O)O)C(C)C)[C@@H](C)O (H-D[Tic]ARNDQEGHILKMFPSTWYV-OH)
 | 4% | CC[C@H](C)[C@H](NC(=O)[C@H](Cc1c[nH]cn1)NC(=O)CNC(=O)[C@H](CCC(=O)O)NC(=O)[C@H](CCC(N)=O)NC(=O)[C@H](CC(=O)O)NC(=O)[C@H](CC(N)=O)NC(=O)[C@H](CCCN=C(N)N)NC(=O)[C@H](C)NC(=O)[C@@H]1Cc2ccccc2CN1C(=O)[C@@H](N)CCC(=O)O)C(=O)N[C@@H](CC(C)C)C(=O)N[C@@H](CCCCN)C(=O)N[C@@H](CCSC)C(=O)N[C@@H](Cc1ccccc1)C(=O)N1CCC[C@H]1C(=O)N[C@@H](CO)C(=O)N[C@H](C(=O)N[C@@H](Cc1c[nH]c2ccccc12)C(=O)N[C@@H](Cc1ccc(O)cc1)C(=O)N[C@H](C(=O)O)C(C)C)[C@@H](C)O (H-E[Tic]ARNDQEGHILKMFPSTWYV-OH)
 | 4% | CC[C@H](C)[C@H](NC(=O)[C@H](Cc1c[nH]cn1)NC(=O)CNC(=O)[C@H](CCC(=O)O)NC(=O)[C@H](CCC(N)=O)NC(=O)[C@H](CC(=O)O)NC(=O)[C@H](CC(N)=O)NC(=O)[C@H](CCCN=C(N)N)NC(=O)[C@H](C)NC(=O)[C@@H]1Cc2ccccc2CN1C(=O)[C@@H](N)Cc1ccccc1)C(=O)N[C@@H](CC(C)C)C(=O)N[C@@H](CCCCN)C(=O)N[C@@H](CCSC)C(=O)N[C@@H](Cc1ccccc1)C(=O)N1CCC[C@H]1C(=O)N[C@@H](CO)C(=O)N[C@H](C(=O)N[C@@H](Cc1c[nH]c2ccccc12)C(=O)N[C@@H](Cc1ccc(O)cc1)C(=O)N[C@H](C(=O)O)C(C)C)[C@@H](C)O (H-F[Tic]ARNDQEGHILKMFPSTWYV-OH)
 | 0% | CC[C@H](C)[C@H](NC(=O)[C@H](Cc1c[nH]cn1)NC(=O)CNC(=O)[C@H](CCC(=O)O)NC(=O)[C@H](CCC(N)=O)NC(=O)[C@H](CC(=O)O)NC(=O)[C@H](CC(N)=O)NC(=O)[C@H](CCCN=C(N)N)NC(=O)[C@H](C)NC(=O)[C@@H]1Cc2ccccc2CN1C(=O)CN)C(=O)N[C@@H](CC(C)C)C(=O)N[C@@H](CCCCN)C(=O)N[C@@H](CCSC)C(=O)N[C@@H](Cc1ccccc1)C(=O)N1CCC[C@H]1C(=O)N[C@@H](CO)C(=O)N[C@H](C(=O)N[C@@H](Cc1c[nH]c2ccccc12)C(=O)N[C@@H](Cc1ccc(O)cc1)C(=O)N[C@H](C(=O)O)C(C)C)[C@@H](C)O (H-G[Tic]ARNDQEGHILKMFPSTWYV-OH)
 | 7% | CC[C@H](C)[C@H](NC(=O)[C@H](Cc1c[nH]cn1)NC(=O)CNC(=O)[C@H](CCC(=O)O)NC(=O)[C@H](CCC(N)=O)NC(=O)[C@H](CC(=O)O)NC(=O)[C@H](CC(N)=O)NC(=O)[C@H](CCCN=C(N)N)NC(=O)[C@H](C)NC(=O)[C@@H]1Cc2ccccc2CN1C(=O)[C@@H](N)Cc1c[nH]cn1)C(=O)N[C@@H](CC(C)C)C(=O)N[C@@H](CCCCN)C(=O)N[C@@H](CCSC)C(=O)N[C@@H](Cc1ccccc1)C(=O)N1CCC[C@H]1C(=O)N[C@@H](CO)C(=O)N[C@H](C(=O)N[C@@H](Cc1c[nH]c2ccccc12)C(=O)N[C@@H](Cc1ccc(O)cc1)C(=O)N[C@H](C(=O)O)C(C)C)[C@@H](C)O (H-H[Tic]ARNDQEGHILKMFPSTWYV-OH)
3% |  | N[C@@H](Cc1c[nH]c2ccccc12)C(=O)N[C@@H](CCC(=O)O)C(=O)O (H-Trp-Glu-OH)
0% |  | N[C@@H](Cc1c[nH]c2ccccc12)C(=O)N[C@@H](Cc1ccccc1)C(=O)O (H-Trp-Phe-OH)
15% |  | N[C@@H](Cc1c[nH]c2ccccc12)C(=O)N1CCC[C@H]1C(=O)O (H-Trp-Pro-OH)
2% |  | N[C@@H](Cc1c[nH]c2ccccc12)C(=O)N[C@@H](Cc1c[nH]c2ccccc12)C(=O)O (H-Trp-Trp-OH)
10% |  | N[C@@H](Cc1c[nH]c2ccccc12)C(=O)N[C@@H](Cc1ccc(O)cc1)C(=O)O (H-Trp-Tyr-OH)
4% |  | CC(C)[C@H](NC(=O)[C@@H](N)Cc1c[nH]c2ccccc12)C(=O)O (H-Trp-Val-OH)

inhibition [1] | inhibition [2] | SMILES
43% |  | C[C@H](NC(=O)[C@@H]1Cc2ccccc2CN1C(=O)[C@@H](N)Cc1c[nH]c2ccccc12)C(=O)O (H-Trp-[Tic]-Ala-OH)
38% |  | NC(N)=NCCC[C@H](NC(=O)[C@@H]1Cc2ccccc2CN1C(=O)[C@@H](N)Cc1c[nH]c2ccccc12)C(=O)O (H-Trp-[Tic]-Arg-OH)
46% |  | NC(=O)C[C@H](NC(=O)[C@@H]1Cc2ccccc2CN1C(=O)[C@@H](N)Cc1c[nH]c2ccccc12)C(=O)O (H-Trp-[Tic]-Asn-OH)
38% |  | N[C@@H](Cc1c[nH]c2ccccc12)C(=O)N1Cc2ccccc2C[C@H]1C(=O)N[C@@H](CC(=O)O)C(=O)O (H-Trp-[Tic]-Asp-OH)
49% |  | N[C@@H](Cc1c[nH]c2ccccc12)C(=O)N1Cc2ccccc2C[C@H]1C(=O)N[C@@H](CS)C(=O)O (H-Trp-[Tic]-Cys-OH)
49% |  | NC(=O)CC[C@H](NC(=O)[C@@H]1Cc2ccccc2CN1C(=O)[C@@H](N)Cc1c[nH]c2ccccc12)C(=O)O (H-Trp-[Tic]-Gln-OH)
34% |  | N[C@@H](Cc1c[nH]c2ccccc12)C(=O)N1Cc2ccccc2C[C@H]1C(=O)NCC(=O)O (H-Trp-[Tic]-Gly-OH)
35% |  | N[C@@H](Cc1c[nH]c2ccccc12)C(=O)N1Cc2ccccc2C[C@H]1C(=O)N[C@@H](Cc1c[nH]cn1)C(=O)O (H-Trp-[Tic]-His-OH)
25% |  | CC(C)C[C@H](NC(=O)[C@@H]1Cc2ccccc2CN1C(=O)[C@@H](N)Cc1c[nH]c2ccccc12)C(=O)O (H-Trp-[Tic]-Leu-OH)
27% |  | NCCCC[C@H](NC(=O)[C@@H]1Cc2ccccc2CN1C(=O)[C@@H](N)Cc1c[nH]c2ccccc12)C(=O)O (H-Trp-[Tic]-Lys-OH)
43% |  | CSCC[C@H](NC(=O)[C@@H]1Cc2ccccc2CN1C(=O)[C@@H](N)Cc1c[nH]c2ccccc12)C(=O)O (H-Trp-[Tic]-Met-OH)
29% |  | N[C@@H](Cc1c[nH]c2ccccc12)C(=O)N1Cc2ccccc2C[C@H]1C(=O)N[C@@H](Cc1ccccc1)C(=O)O (H-Trp-[Tic]-Phe-OH)
20% |  | N[C@@H](Cc1c[nH]c2ccccc12)C(=O)N1Cc2ccccc2C[C@H]1C(=O)N1CCC[C@H]1C(=O)O (H-Trp-[Tic]-Pro-OH)
37% |  | N[C@@H](Cc1c[nH]c2ccccc12)C(=O)N1Cc2ccccc2C[C@H]1C(=O)N[C@@H](Cc1c[nH]c2ccccc12)C(=O)O (H-Trp-[Tic]-Trp-OH)
36% |  | N[C@@H](Cc1c[nH]c2ccccc12)C(=O)N1Cc2ccccc2C[C@H]1C(=O)N[C@@H](Cc1ccc(O)cc1)C(=O)O (H-Trp-[Tic]-Tyr-OH)
19% |  | CC(C)[C@H](NC(=O)[C@@H]1Cc2ccccc2CN1C(=O)[C@@H](N)Cc1c[nH]c2ccccc12)C(=O)O (H-Trp-[Tic]-Val-OH)
